Type in all cases: physicochemical
Series [1] in a line: Water content by thermogravimetric analysis (TGA). The note with it: for Loss in weight / Nature of the solvent: TGA; for Loss in weight: from 25° C., 10° C./min, nitrogen purge; for Nature of the solvent: solvent lost; for Hydration state: from TGA curve. As to the method:
The water content of the five above salts was studied by thermogravimetric analysis (TGA).
The TGA tests are carried out in a TA8000 device equipped with a TGA850 module. The temperature calibrations are carried out conventionally using the melting of indium.
The experimental parameters employed were:
Final temperature: 250° C. for the dihydrochloride, 300° C. for the fumarate, 200° C. or 250° C. for the dihydrogensulfate, 250° C. or 300° C. for the dibesylate and the besylate.
The system is purged using nitrogen at a flow rate of 70 ml/min.
The pans used were 70 μl silica pans.

Series [2] is described as follows: Water sorption isotherms (DVS). The note with it: 25° C. On the procedure: The DVS tests are carried out using a DVS-1 system. From 20 to 32 mg of product are used per analysis and the temperature is maintained at 25° C. plus or minus 0.2° C. Nitrogen is used as carrier gas at a flow rate of 100 ml/min in the sample chamber.
Series [3] in a line: Chemical stability of salts exposed to heat and moisture, measured by HPLC. The settings on record: for Purity after 14 days at 80° C./80% RH: 14 days at 80° C. and 80% relative humidity; for Initial purity: before exposure (baseline of stability study). As to the method:
The chemical stability of the compound of formula (I) in the dihydrochloride, dihydrogensulfate, fumarate, dibenzenesulfonate and monobenzenesulfonate forms was studied.
Each of the five above salts is exposed to heat, to moisture and to light under the conditions below: • 14 days at a temperature of 80° C., • 14 days at a temperature of 80° C. and a relative humidity (RH) level of 80%, • exposure to light of 400 W.Hrs.m^−2.

We go through five compounds from patent publication US20080085917A1, “7-(2-(4-(3-TRIFLUOROMETHYL-PHENYL)-1,2,3,6-TETRAHYDROPYRID-1-YL)ETHYL)ISOQUINOLINE BESYLATE SALT, PREPARATION AND THERAPEUTIC USE THEREOF” (sanofi-aventis, priority 2005, published 2008).

Turning to `FC(F)(F)c1cccc(C2=CCN(CCc3ccc4ccncc4c3)CC2)c1.O=S(=O)(O)c1ccccc1` [Besylate, 7-(2-(4-(3-(trifluoromethyl)phenyl)-1,2,3,6-tetrahydropyrid-1-yl)ethyl)isoquinoline besylate], in series [1], the Loss in weight is listed as 0.11 % weight/weight, the “Nature of the solvent” value was “Water” and the Hydration state entry is on record as “not hydrated”. For the same compound, in series [2], the “Hygroscopicity (sorption isotherms), in words” value (shortened to “Hygroscopicity”) was “least hygroscopic of all the salts tested” and the Hysteresis in sorption/desorption result is given as “No hysteresis”. In addition, in series [3], the “Purity after 14 days at 80° C.” value turned out to be 97.9%, the “Purity after 14 days at 80° C./80% RH” value was 96.5% and the Initial purity turned out to be 98.2%.
For the compound `FC(F)(F)c1cccc(C2=CCN(CCc3ccc4ccncc4c3)CC2)c1.O=S(=O)(O)c1ccccc1.O=S(=O)(O)c1ccccc1` [Dibesylate], in series [1], the Loss in weight is recorded as 0.72 % weight/weight and the “Nature of the solvent” value was “Water”. In series [2], the “Hygroscopicity” value is listed as “significant acquisition of water” and the Hysteresis in sorption/desorption entry is “hystereses observed during the desorption”. For the same compound, in series [3], the “Purity after 14 days at 80° C.” value is 97.5%, the “Purity after 14 days at 80° C./80% RH” value was 96.2% and the Initial purity was 97.5%.
With `FC(F)(F)c1cccc(C2=CCN(CCc3ccc4ccncc4c3)CC2)c1.O=S(=O)(O)O.O=S(=O)(O)O` [Dihydrogensulfate], in series [1], the Loss in weight was determined as 2.06 % weight/weight and the “Nature of the solvent” value is “Solvent + water”. Also, in series [2], the “Hygroscopicity” value is listed as “significant acquisition of water” and the Hysteresis in sorption/desorption result is recorded as “hystereses observed during the desorption”. In series [3], the “Purity after 14 days at 80° C.” value was 91.9%, the “Purity after 14 days at 80° C./80% RH” value worked out at 88.5% and the Initial purity amounted to 93.3%.
With `Cl.Cl.FC(F)(F)c1cccc(C2=CCN(CCc3ccc4ccncc4c3)CC2)c1` [Dihydrochloride], in series [1], the Loss in weight turned out to be 11.0 % weight/weight, the “Nature of the solvent” value was “Water” and the Hydration state result is recorded as “three water molecules per mole of anhydrous salt”. In series [2], the Hysteresis in sorption/desorption result is on record as “weak hysteresis”. The “Water acquired during the sorption cycle” value in series [2] (between 30 and 80% relative humidity) was 1.9 % weight/weight. In series [3], the “Purity after 14 days at 80° C.” value came to 95.6%, the “Purity after 14 days at 80° C./80% RH” value was 92.9% and the Initial purity came to 97.0%.
Fumarate: in series [1], the Loss in weight is on record as 0.45 % weight/weight and the “Nature of the solvent” value was “Solvent + water”. Moreover, the “Hygroscopicity” value in series [2] was “weakly hygroscopic”. Also, in series [3], the “Purity after 14 days at 80° C.” value is reported as 96.7%, the “Purity after 14 days at 80° C./80% RH” value was 32.4% and the Initial purity is on record as 97.9%.
